Reference: patent US20090069319A1, “IMIDAZOPYRIDINE ANALOGS AND THEIR USE AS AGONISTS OF THE WNT-BETA-CATENIN CELLULAR MESSAGING SYSTEM” (Wyeth, priority 2007, published 2009)

Legend:
[1] = Functional Dkk1-LRP5-TCF-Luciferase Assay in U2OS Cells (table columns: A=MAX FOLD Induction/DMSO CONTROL; B=fold induction @ 2.0 uM; C=fold induction @ 20.0 uM); type: cell-based, Human; conditions: Homo sapiens; for fold induction at 2 µM / fold induction at 20 µM: U2OS; for fold induction at 2 µM: 2.0 uM compound; for fold induction at 20 µM: 20.0 uM compound; for EC50: U2OS cells, TCF-luciferase reporter
In short: (§1)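 U2OS cells co-transfected with 16×TCF-TK-firefly luciferase, TK-Renilla control, Wnt3a and Dkk1, then frozen; thawed cells (~5,000/well, ~5% FBS, phenol red-free RPMI) incubated ~20 h at 37° C. with compound (0.25% DMSO). Firefly luminescence (Bright-Glo) normalized to DMSO mean as fold induction.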

[2] = test system: canonical Wnt-β-catenin cellular messaging system (16xTCF-TK-FireFly-Luci reporter, Wnt3a and Dkk1 co-transfected U2OS cells); assay: as above; type: cell-based, Human; conditions: maximum fold induction over DMSO control
In short: as §1

| SMILES | fold induction at 2 µM [1] | fold induction at 20 µM [1] | EC50 [1] [nM] | A = MAX FOLD Induction/DMSO CONTROL [2] |
| --- | --- | --- | --- | --- |
| c1ccc2cc(-c3ccnc4c3ncn4[C@@H]3CCNC3)ccc2c1 [7-(2-naphthyl)-3-[(3R)-pyrrolidin-3-yl]-3H-imidazo[4,5-b]pyridine] | 2.06 | 1.65 | 3150 | 4.260 |
| CC(=O)Nc1ccc(-c2nc3c(-c4ccc5ccccc5c4)ccnc3n2C2CCNCC2)cc1 [N-{4-[7-(2-naphthyl)-3-piperidin-4-yl-3H-imidazo[4,5-b]pyridin-2-yl]phenyl}acetamide] | 1.99 | – | – | 1.710 |
| c1cncc(-c2nc3cc(-c4ccc5ccccc5c4)cnc3n2C2CCNCC2)c1 [6-(2-naphthyl)-3-piperidin-4-yl-2-pyridin-3-yl-3H-imidazo[4,5-b]pyridine] | 1.75 | 0.005 | – | 1.100 |
| c1ccc2cc(-c3ccnc4c3ncn4[C@@H]3CCCNC3)ccc2c1 [7-(2-naphthyl)-3-[(3R)-piperidin-3-yl]-3H-imidazo[4,5-b]pyridine] | 3.48 | 1.4 | 963 | 3.820 |
| Cc1nc2c(-c3ccc4ccccc4c3)ccnc2n1C1CCNCC1 [2-methyl-7-(2-naphthyl)-3-piperidin-4-yl-3H-imidazo[4,5-b]pyridine] | 2.84 | – | 895 | 3.215 |
| Oc1ccc(-c2nc3cc(-c4ccc5ccccc5c4)cnc3n2C2CCNCC2)cc1 [4-[6-(2-naphthyl)-3-piperidin-4-yl-3H-imidazo[4,5-b]pyridin-2-yl]phenol] | – | – | – | 1.710 |
| O=C1OC2(c3ccc(O)cc3Oc3cc(O)ccc32)c2ccc(NC(=S)N3CCC(n4cnc5c(-c6ccc7ccccc7c6)ccnc54)CC3)cc21 [N-(3′,6′-dihydroxy-3-oxo-3H-spiro[2-benzofuran-1,9′-xanthen]-5-yl)-4-[7-(2-naphthyl)-3H-imidazo[4,5-b]pyridin-3-yl]piperidine-1-carbothioamide] | 1.4 | 6.49 | 10700 | 12.158 |
| c1ccc2cc(-c3ccnc4c3ncn4CCCn3ccnc3)ccc2c1 [3-[3-(1H-imidazol-1-yl)propyl]-7-(2-naphthyl)-3H-imidazo[4,5-b]pyridine] | 1.76 | 3.31 | 10200 | 2.870 |
| CC(=O)Nc1ccc(-c2nc3cc(-c4ccc5ccccc5c4)cnc3n2C2CCNCC2)cc1 [N-{4-[6-(2-naphthyl)-3-piperidin-4-yl-3H-imidazo[4,5-b]pyridin-2-yl]phenyl}acetamide] | – | – | – | 1.460 |
| COc1ccc(-c2nc3c(-c4ccc5ccccc5c4)ccnc3n2C2CCNCC2)cc1 [2-(4-methoxyphenyl)-7-(2-naphthyl)-3-piperidin-4-yl-3H-imidazo[4,5-b]pyridine] | 1.98 | – | – | 1.320 |
| Cc1nc2c(-c3ccc4ccccc4c3)ccnc2n1[C@H]1CCCNC1 [2-methyl-7-(2-naphthyl)-3-[(3S)-piperidin-3-yl]-3H-imidazo[4,5-b]pyridine] | 2.12 | 0.02 | – | 1.910 |
| Cc1nc2c(-c3ccc4ccccc4c3)ccnc2n1[C@@H]1CCCNC1 [2-methyl-7-(2-naphthyl)-3-[(3R)-piperidin-3-yl]-3H-imidazo[4,5-b]pyridine] | 2.74 | 0.05 | 2680 | 3.570 |
| CS(=O)(=O)N1CCC(n2cnc3c(-c4ccc5ccccc5c4)ccnc32)CC1 [3-[1-(methylsulfonyl)piperidin-4-yl]-7-(2-naphthyl)-3H-imidazo[4,5-b]pyridine] | 1.66 | 2.52 | – | 1.230 |
| COc1cc(-c2nc3cc(-c4ccc5ccccc5c4)cnc3n2C2CCNCC2)ccc1O [2-methoxy-4-[6-(2-naphthyl)-3-piperidin-4-yl-3H-imidazo[4,5-b]pyridin-2-yl]phenol] | – | – | 486 | 2.110 |
| c1ccc2cc(-c3cnc4c(c3)nc(-c3ccc5c(c3)OCCO5)n4C3CCNCC3)ccc2c1 [2-(2,3-dihydro-1,4-benzodioxin-6-yl)-6-(2-naphthyl)-3-piperidin-4-yl-3H-imidazo[4,5-b]pyridine] | – | – | – | 1.460 |
| Oc1ccccc1-c1nc2cc(-c3ccc4ccccc4c3)cnc2n1C1CCNCC1 [2-[6-(2-naphthyl)-3-piperidin-4-yl-3H-imidazo[4,5-b]pyridin-2-yl]phenol] | – | – | – | 1.380 |
| FC(F)(F)c1ccccc1-c1nc2cc(-c3ccc4ccccc4c3)cnc2n1C1CCNCC1 [6-(2-naphthyl)-3-piperidin-4-yl-2-[2-(trifluoromethyl)phenyl]-3H-imidazo[4,5-b]pyridine] | – | – | – | 1.360 |
| Cn1cccc1-c1nc2cc(-c3ccc4ccccc4c3)cnc2n1C1CCNCC1 [2-(1-methyl-1H-pyrrol-2-yl)-6-(2-naphthyl)-3-piperidin-4-yl-3H-imidazo[4,5-b]pyridine] | – | – | – | 2.470 |

| SMILES | fold induction at 2 µM [1] | fold induction at 20 µM [1] | EC50 [1] [nM] | A = MAX FOLD Induction/DMSO CONTROL [2] |
| --- | --- | --- | --- | --- |
| COc1ccc(-c2nc3cc(-c4ccc5ccccc5c4)cnc3n2C2CCNCC2)cc1 [2-(4-methoxyphenyl)-6-(2-naphthyl)-3-piperidin-4-yl-3H-imidazo[4,5-b]pyridine] | – | – | – | 1.350 |
| C=Cc1cccc(-c2nc3cc(-c4ccc5ccccc5c4)cnc3n2C2CCNCC2)c1 [6-(2-naphthyl)-3-piperidin-4-yl-2-(3-vinylphenyl)-3H-imidazo[4,5-b]pyridine] | – | – | – | 1.290 |
| Cc1nc[nH]c1-c1nc2cc(-c3ccc4ccccc4c3)cnc2n1C1CCNCC1 [2-(4-methyl-1H-imidazol-5-yl)-6-(2-naphthyl)-3-piperidin-4-yl-3H-imidazo[4,5-b]pyridine] | – | – | – | 1.870 |
| Cn1ccnc1-c1nc2cc(-c3ccc4ccccc4c3)cnc2n1C1CCNCC1 [2-(1-methyl-1H-imidazol-2-yl)-6-(2-naphthyl)-3-piperidin-4-yl-3H-imidazo[4,5-b]pyridine] | – | – | – | 2.720 |
| Oc1cccc(-c2nc3cc(-c4ccc5ccccc5c4)cnc3n2C2CCNCC2)c1O [3-[6-(2-naphthyl)-3-piperidin-4-yl-3H-imidazo[4,5-b]pyridin-2-yl]benzene-1,2-diol] | – | – | – | 1.430 |
| COc1ccccc1-c1nc2cc(-c3ccc4ccccc4c3)cnc2n1C1CCNCC1 [2-(2-methoxyphenyl)-6-(2-naphthyl)-3-piperidin-4-yl-3H-imidazo[4,5-b]pyridine] | 1.37 | 0.01 | – | – |
| FC(F)(F)Oc1ccc(-c2nc3c(-c4ccc5ccccc5c4)ccnc3n2C2CCNCC2)cc1 [7-(2-naphthyl)-3-piperidin-4-yl-2-[4-(trifluoromethoxy)phenyl]-3H-imidazo[4,5-b]pyridine] | 1.51 | – | – | – |
| c1ccc2cc(-c3ccnc4c3nc(-c3cnc5ccccc5c3)n4C3CCNCC3)ccc2c1 [3-[7-(2-naphthyl)-3-piperidin-4-yl-3H-imidazo[4,5-b]pyridin-2-yl]quinoline] | 1.44 | – | – | – |
| c1ccc2cc(-c3cnc4c(c3)nc(-c3ccc5occc5c3)n4C3CCNCC3)ccc2c1 [2-(1-benzofuran-5-yl)-6-(2-naphthyl)-3-piperidin-4-yl-3H-imidazo[4,5-b]pyridine] | 0.98 | – | – | – |
| Clc1ccc(-c2nc3cc(-c4ccc5ccccc5c4)cnc3n2C2CCNCC2)cc1 [2-(4-chlorophenyl)-6-(2-naphthyl)-3-piperidin-4-yl-3H-imidazo[4,5-b]pyridine] | – | – | – | 1.160 |
| Fc1cccc(F)c1-c1nc2c(-c3ccc4ccccc4c3)ccnc2n1C1CCNCC1 [2-(2,6-difluorophenyl)-7-(2-naphthyl)-3-piperidin-4-yl-3H-imidazo[4,5-b]pyridine] | 1.11 | – | – | – |
| COc1ccc2ccccc2c1-c1nc2c(-c3ccc4ccccc4c3)ccnc2n1C1CCNCC1 [2-(2-methoxy-1-naphthyl)-7-(2-naphthyl)-3-piperidin-4-yl-3H-imidazo[4,5-b]pyridine] | 1.17 | – | – | – |
| N#Cc1ccc(-c2nc3c(-c4ccc5ccccc5c4)ccnc3n2C2CCNCC2)cc1 [4-[7-(2-naphthyl)-3-piperidin-4-yl-3H-imidazo[4,5-b]pyridin-2-yl]benzonitrile] | 1.58 | – | – | – |
| O=[N+]([O-])c1ccc(-c2nc3c(-c4ccc5ccccc5c4)ccnc3n2C2CCNCC2)s1 [7-(2-naphthyl)-2-(5-nitro-2-thienyl)-3-piperidin-4-yl-3H-imidazo[4,5-b]pyridine] | 1.83 | 0.01 | – | – |
| CC(C)c1ccc(-c2nc3cc(-c4ccc5ccccc5c4)cnc3n2C2CCNCC2)cc1 [2-(4-isopropylphenyl)-6-(2-naphthyl)-3-piperidin-4-yl-3H-imidazo[4,5-b]pyridine] | 1.14 | – | – | – |
| Cn1c(=O)n(C2CCNCC2)c2nccc(-c3ccc4ccccc4c3)c21 [1-methyl-7-(2-naphthyl)-3-piperidin-4-yl-1,3-dihydro-2H-imidazo[4,5-b]pyridin-2-one] | 1.07 | – | – | – |
| FC(F)(F)Oc1cccc(-c2nc3c(-c4ccc5ccccc5c4)ccnc3n2C2CCNCC2)c1 [7-(2-naphthyl)-3-piperidin-4-yl-2-[3-(trifluoromethoxy)phenyl]-3H-imidazo[4,5-b]pyridine] | 1.52 | – | – | – |
| c1ccc2cc(-c3ccnc4c3nc(-c3cc5ccccc5o3)n4C3CCNCC3)ccc2c1 [2-(1-benzofuran-2-yl)-7-(2-naphthyl)-3-piperidin-4-yl-3H-imidazo[4,5-b]pyridine] | 1.53 | 0.01 | – | – |
